Source: the NIST ThermoML archive (doi:10.1021/acs.jced.7b00520)

Assays:
[1] = mn = molality of the nth substance listed, in mol/kg; conditions: 101.3 kPa, Liquid; for viscosity: Capillary tube (Ostwald / Ubbelohde) method; for mass density: Vibrating tube method
[2] = 101.3 kPa, Liquid, Capillary tube (Ostwald / Ubbelohde) method

[Cl-].[Cl-].[Mg+2] [magnesium chloride] + O
[1]
Conditions | mass density, m1 = 0.09999 [kg/m3] | mass density, m1 = 0.25 [kg/m3] | mass density, m1 = 0.5 [kg/m3] | mass density, m1 = 0.7499 [kg/m3] | mass density, m1 = 0.9999 [kg/m3] | viscosity, m1 = 0.0999 [mPa·s] | viscosity, m1 = 0.25 [mPa·s] | viscosity, m1 = 0.5 [mPa·s] | viscosity, m1 = 0.7499 [mPa·s] | viscosity, m1 = 0.9999 [mPa·s]
288.15 K | 1006.87 | 1017.79 | 1034.95 | 1050.84 | 1065.46 | 1.21 | 1.25 | 1.355 | 1.445 | 1.534
298.15 K | 1004.61 | 1015.32 | 1032.22 | 1048.21 | 1062.64 | 0.934 | 0.981 | 1.072 | 1.147 | 1.214
308.15 K | 1001.62 | 1012.53 | 1029.55 | 1045.26 | 1059.4 | 0.751 | 0.794 | 0.862 | 0.934 | 1.01
318.15 K | 997.848 | 1008.92 | 1026.01 | 1041.4 | 1055.25 | 0.624 | 0.659 | 0.715 | 0.762 | 0.814

O [water]
[2]
Conditions | viscosity [mPa·s]
288.15 K | 1.138
298.15 K | 0.89
308.15 K | 0.719
318.15 K | 0.596
